What was measured:
Assay in all cases: biochemical
Type in all cases: binding
panel of 442 kinases [1] = biological target: T1, panel of 442 kinases (Homo sapiens, UniProt Q9NSY1); details: BIKE; for remaining activity at 1 µM: read-out: % of control at 1 µM
T1 construct: purchased Ambit Biosciences (scanMAXX KINOMEscan)

panel of 442 kinases [2] = biological target: T2, panel of 442 kinases (Homo sapiens, UniProt Q8TD08); details: ERK8; for remaining activity at 1 µM: read-out: % of control at 1 µM
T2 construct: purchased Ambit Biosciences (scanMAXX KINOMEscan)
T2 sequence (Q8TD08 1-544): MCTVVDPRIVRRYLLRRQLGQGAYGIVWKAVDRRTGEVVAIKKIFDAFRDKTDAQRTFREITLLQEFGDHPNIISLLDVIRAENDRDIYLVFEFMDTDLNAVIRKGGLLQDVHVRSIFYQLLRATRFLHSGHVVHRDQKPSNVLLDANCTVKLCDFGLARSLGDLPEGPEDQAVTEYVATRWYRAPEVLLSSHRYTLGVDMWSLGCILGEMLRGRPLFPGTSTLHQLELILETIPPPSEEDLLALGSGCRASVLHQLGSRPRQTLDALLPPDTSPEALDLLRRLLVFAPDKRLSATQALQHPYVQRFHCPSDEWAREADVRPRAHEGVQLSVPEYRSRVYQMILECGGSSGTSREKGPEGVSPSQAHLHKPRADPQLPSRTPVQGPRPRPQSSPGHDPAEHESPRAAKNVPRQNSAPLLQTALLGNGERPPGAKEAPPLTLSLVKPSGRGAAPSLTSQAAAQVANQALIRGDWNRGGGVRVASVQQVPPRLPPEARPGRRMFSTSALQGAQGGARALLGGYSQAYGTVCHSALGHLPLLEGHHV

panel of 442 kinases [3] = biological target: T3, panel of 442 kinases (Homo sapiens, UniProt O75385); details: kinase ULK1; for remaining activity at 1 µM: read-out: ULK1 (% of control at 1 µM)
T3 construct: purchased Ambit Biosciences (scanMAXX KINOMEscan)
T3 sequence (O75385 1-1050): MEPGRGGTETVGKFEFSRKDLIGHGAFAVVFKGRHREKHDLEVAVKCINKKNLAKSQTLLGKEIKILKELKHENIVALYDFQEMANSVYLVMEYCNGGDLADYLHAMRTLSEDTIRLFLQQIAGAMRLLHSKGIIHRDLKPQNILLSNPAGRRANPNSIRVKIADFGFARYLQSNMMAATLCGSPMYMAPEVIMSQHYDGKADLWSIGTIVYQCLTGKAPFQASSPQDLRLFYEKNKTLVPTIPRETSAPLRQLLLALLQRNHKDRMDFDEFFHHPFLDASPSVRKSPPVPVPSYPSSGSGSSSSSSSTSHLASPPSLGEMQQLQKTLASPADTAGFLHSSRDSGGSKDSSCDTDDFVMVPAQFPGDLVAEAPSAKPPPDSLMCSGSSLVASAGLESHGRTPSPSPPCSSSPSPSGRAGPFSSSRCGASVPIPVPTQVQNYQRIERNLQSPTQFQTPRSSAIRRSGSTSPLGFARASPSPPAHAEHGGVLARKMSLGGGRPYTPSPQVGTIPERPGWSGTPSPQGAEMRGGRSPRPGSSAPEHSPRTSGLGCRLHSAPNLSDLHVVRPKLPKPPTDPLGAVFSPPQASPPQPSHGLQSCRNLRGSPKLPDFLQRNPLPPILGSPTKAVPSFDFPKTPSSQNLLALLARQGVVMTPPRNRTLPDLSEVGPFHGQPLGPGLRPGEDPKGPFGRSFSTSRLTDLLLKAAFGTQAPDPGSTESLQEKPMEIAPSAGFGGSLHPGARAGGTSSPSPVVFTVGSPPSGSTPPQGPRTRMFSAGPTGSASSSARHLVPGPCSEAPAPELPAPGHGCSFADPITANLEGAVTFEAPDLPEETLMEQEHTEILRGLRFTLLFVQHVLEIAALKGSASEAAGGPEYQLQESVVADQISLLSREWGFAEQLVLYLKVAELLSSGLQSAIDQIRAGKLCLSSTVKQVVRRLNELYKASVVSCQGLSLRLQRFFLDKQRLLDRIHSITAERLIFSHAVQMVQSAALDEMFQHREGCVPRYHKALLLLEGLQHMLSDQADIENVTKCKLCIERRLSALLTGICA

panel of 442 kinases [4] = biological target: T4, panel of 442 kinases (Homo sapiens, UniProt O14730); details: kinase RIOK3; for remaining activity at 1 µM: read-out: RIOK3 (% of control at 1 µM)
T4 construct: purchased Ambit Biosciences (scanMAXX KINOMEscan)
T4 sequence (O14730 1-519): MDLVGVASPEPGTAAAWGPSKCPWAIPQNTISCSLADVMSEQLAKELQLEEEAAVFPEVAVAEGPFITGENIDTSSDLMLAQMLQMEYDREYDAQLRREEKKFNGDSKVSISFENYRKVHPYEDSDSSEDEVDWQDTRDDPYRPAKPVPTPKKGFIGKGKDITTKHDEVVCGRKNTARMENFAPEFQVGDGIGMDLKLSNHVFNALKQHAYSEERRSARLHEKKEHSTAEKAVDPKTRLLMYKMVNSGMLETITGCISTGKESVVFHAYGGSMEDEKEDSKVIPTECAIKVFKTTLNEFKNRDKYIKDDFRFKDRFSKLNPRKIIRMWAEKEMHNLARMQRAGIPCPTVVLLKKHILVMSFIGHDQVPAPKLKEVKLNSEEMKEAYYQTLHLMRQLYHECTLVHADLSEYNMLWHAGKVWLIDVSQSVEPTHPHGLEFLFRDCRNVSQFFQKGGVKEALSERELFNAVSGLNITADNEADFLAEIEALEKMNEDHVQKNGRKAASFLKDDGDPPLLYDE

panel of 442 kinases [5] = biological target: T5, panel of 442 kinases (Homo sapiens, UniProt Q9UIK4); details: DAPK2; for remaining activity at 1 µM: read-out: % of control at 1 µM
T5 construct: purchased Ambit Biosciences (scanMAXX KINOMEscan)

[6] = 10 µM, read-out: % of control at 10 µM

T5 sequence (Q9UIK4 whole entry): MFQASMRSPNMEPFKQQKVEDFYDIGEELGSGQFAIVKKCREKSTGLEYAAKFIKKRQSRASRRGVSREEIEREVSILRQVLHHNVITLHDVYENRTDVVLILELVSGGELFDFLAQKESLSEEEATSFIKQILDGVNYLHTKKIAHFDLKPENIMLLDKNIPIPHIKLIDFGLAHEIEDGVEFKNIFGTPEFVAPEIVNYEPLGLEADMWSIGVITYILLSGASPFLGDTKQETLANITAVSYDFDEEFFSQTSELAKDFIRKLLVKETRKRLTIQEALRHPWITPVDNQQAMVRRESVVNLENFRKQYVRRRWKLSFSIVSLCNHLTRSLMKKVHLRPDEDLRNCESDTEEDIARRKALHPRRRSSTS
T1 sequence (Q9NSY1 whole entry): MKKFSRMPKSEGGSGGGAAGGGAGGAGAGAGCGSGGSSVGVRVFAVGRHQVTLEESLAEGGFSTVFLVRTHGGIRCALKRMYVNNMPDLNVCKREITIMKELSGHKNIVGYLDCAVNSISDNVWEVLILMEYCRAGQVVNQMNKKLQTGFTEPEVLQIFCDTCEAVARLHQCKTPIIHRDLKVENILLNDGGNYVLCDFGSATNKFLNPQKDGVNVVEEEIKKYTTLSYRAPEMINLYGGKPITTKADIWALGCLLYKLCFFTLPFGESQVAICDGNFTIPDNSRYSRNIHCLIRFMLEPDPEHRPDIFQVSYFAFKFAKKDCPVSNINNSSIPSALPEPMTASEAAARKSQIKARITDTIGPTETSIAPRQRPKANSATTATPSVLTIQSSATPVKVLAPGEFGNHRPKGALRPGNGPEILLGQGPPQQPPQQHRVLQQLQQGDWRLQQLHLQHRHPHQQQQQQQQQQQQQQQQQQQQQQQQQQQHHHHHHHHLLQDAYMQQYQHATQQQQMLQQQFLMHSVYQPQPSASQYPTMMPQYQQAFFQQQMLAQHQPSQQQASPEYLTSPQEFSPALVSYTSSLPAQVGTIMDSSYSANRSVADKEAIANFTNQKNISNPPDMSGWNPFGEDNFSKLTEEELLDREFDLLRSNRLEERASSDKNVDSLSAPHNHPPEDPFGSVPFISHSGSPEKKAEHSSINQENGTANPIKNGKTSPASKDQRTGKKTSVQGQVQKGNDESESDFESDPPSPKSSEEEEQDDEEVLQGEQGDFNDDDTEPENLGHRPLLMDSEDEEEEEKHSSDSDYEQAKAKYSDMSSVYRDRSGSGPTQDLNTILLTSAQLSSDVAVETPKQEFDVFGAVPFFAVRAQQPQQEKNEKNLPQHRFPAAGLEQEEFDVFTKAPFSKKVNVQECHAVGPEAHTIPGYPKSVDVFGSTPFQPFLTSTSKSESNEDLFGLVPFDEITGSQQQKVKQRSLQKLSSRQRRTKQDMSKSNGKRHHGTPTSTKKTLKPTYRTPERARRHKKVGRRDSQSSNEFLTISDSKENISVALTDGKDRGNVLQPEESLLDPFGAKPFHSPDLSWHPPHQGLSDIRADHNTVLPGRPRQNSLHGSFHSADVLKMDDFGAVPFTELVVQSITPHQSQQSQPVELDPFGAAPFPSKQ

Row | SMILES | remaining activity at 1 µM (panel of 442 kinases [1]) | remaining activity at 10 µM (panel of 442 kinases [1]; [6]) | remaining activity at 1 µM (panel of 442 kinases [2]) | remaining activity at 10 µM (panel of 442 kinases [2]; [6]) | remaining activity at 1 µM (panel of 442 kinases [3]) | remaining activity at 10 µM (panel of 442 kinases [3]; 10 µM, read-out: ULK1 (% of control at 10 µM)) | remaining activity at 1 µM (panel of 442 kinases [4]) | remaining activity at 10 µM (panel of 442 kinases [4]; 10 µM, read-out: RIOK3 (% of control at 10 µM)) | remaining activity at 1 µM (panel of 442 kinases [5]) | remaining activity at 10 µM (panel of 442 kinases [5]; [6])
1 | Nc1cc(C(F)(F)F)c(-c2cc(N3CCOCC3)nc(N3CCOCC3)n2)cn1 [Buparlisib] | 98% | 100% | 100% | 100% | 100% | 100% | 95% | 95% | 100% | 100%
2 | Cn1c(=O)n(-c2ccc(C(C)(C)C#N)cc2)c2c3cc(-c4cnc5ccccc5c4)ccc3ncc21 [Dactolisib, 2-methyl-2-[4-(3-methyl-2-oxo-8-quinolin-3-yl-2,3-dihydroimidazo[4,5-c]quinolin-1-yl)-phenyl] propionitrile] | 53% |  | 86% |  | 88% |  | 70% |  | 97% | 
3 | COc1ncc(-c2ccc3nccc(-c4ccnnc4)c3c2)cc1NS(=O)(=O)c1ccc(F)cc1F [Omipalisib] | 82% |  | 100% |  | 99% |  | 95% |  | 100% | 
4 | FC(F)c1nc2ccccc2n1-c1nc(N2CCOCC2)nc(N2CCOCC2)n1 [ZSTK474, 2-(difluoromethyl)-1-[4,6-di(4-morpholinyl)-1,3,5-triazin-2-yl]-1H-benzimidazole] | 53% |  | 100% |  | 69% |  | 71% |  | 100% | 

From publication PMC5564600 (Oncotarget, 2017)
